The record followed here is PubChem BioAssay AID180 (DTP/NCI, 2004).

A word on the T/C: it is the ratio of treated to control.

SMILES strings stand for the structures. Values joined by “and” are separate entries in the source; they are usually repeats but may differ in a detail not shown here. Equal values may be shown once.

This assay has as its system BDF1 mice, Adenocarcinoma 755 s.c., tumor weight T/C. As to the kind of experiment: NCI In Vivo Anticancer Drug Screen. Data for tumor model Adenocarcinoma 755 (subcutaneous) in B6D2F1 (BDF1) mice. As to conditions: endpoint: mean tumor weight, higher = larger tumour. The procedure: The antitumor activity of compounds was measured in mice bearing transplantable tumors. Survival or tumor size were measured and the results are expressed as the measurement made in the treated group (T) divided by the measurement made in the vehicle treated control group (C). The tumor model used in this assay is Adenocarcinoma 755 (subcutaneous) in B6D2F1 (BDF1) mice

Setting [1] is: dose: 25.0 mg/kg/injection, schedule: Q01DX011 (ip), vehicle: methylcellulose (MC).

In the case of `Nc1nc2n[nH]nc2c(=O)[nH]1`, the T/C by setting is: (dose: 11.18 mg/kg/injection, schedule: Q01DX011 (ip), vehicle: carboxymethylcellulose (CMC)) 80 % of control; (dose: 12.5 mg/kg/injection, schedule: Q01DX011 (ip), vehicle: other) 62 % of control and 80 % of control; (dose: 13.55 mg/kg/injection, schedule: Q01DX011 (ip), vehicle: carboxymethylcellulose (CMC)) 85 % of control; (dose: 17.88 mg/kg/injection, schedule: Q01DX011 (ip), vehicle: carboxymethylcellulose (CMC)) 98 % of control; (dose: 22.35 mg/kg/injection, schedule: Q01DX011 (ip), vehicle: carboxymethylcellulose (CMC)) 70 % of control and 76 % of control; (dose: 27.1 mg/kg/injection, schedule: Q01DX011 (ip), vehicle: carboxymethylcellulose (CMC)) 80 % of control. Further, the T/C runs as follows: (dose: 29.8 mg/kg/injection, schedule: Q01DX011 (ip), vehicle: carboxymethylcellulose (CMC)) 59 % of control; (dose: 37.5 mg/kg/injection, schedule: Q01DX011 (sc), vehicle: carboxymethylcellulose (CMC)) 11 % of control; (dose: 44.7 mg/kg/injection, schedule: Q01DX011 (ip), vehicle: carboxymethylcellulose (CMC)) 17 % of control and 33 % of control; (dose: 75.0 mg/kg/injection, schedule: Q01DX011 (sc), vehicle: carboxymethylcellulose (CMC)) 5 % of control; (dose: 89.4 mg/kg/injection, schedule: Q01DX011 (ip), vehicle: carboxymethylcellulose (CMC)) 4 % of control and 6 % of control; (dose: 108.4 mg/kg/injection, schedule: Q01DX011 (ip), vehicle: carboxymethylcellulose (CMC)) 3 % of control and 4 % of control.
For `CSc1ncnc2c1ncn2C1CCCS1` (stereo not drawn), the T/C by setting is: under setting [1], 61 % of control; (dose: 75.0 mg/kg/injection, schedule: Q01DX011 (ip), vehicle: methylcellulose (MC)) 66 % of control; (dose: 225.0 mg/kg/injection, schedule: Q01DX011 (ip), vehicle: methylcellulose (MC)) 54 % of control.
Consider `NC(N)=Nc1nc2ccccc2s1`, for which the T/C was 108 % of control (dose: 6.25 mg/kg/injection, schedule: Q01DX011 (ip), vehicle: carboxymethylcellulose (CMC)); 84 % of control (dose: 6.25 mg/kg/injection, schedule: Q01DX011 (ip), vehicle: other); 105 % of control (dose: 6.25 mg/kg/injection, schedule: Q01DX011 (ip), vehicle: water); 53 % of control (dose: 12.5 mg/kg/injection, schedule: Q01DX011 (ip), vehicle: carboxymethylcellulose (CMC)); 90 % of control (dose: 25.0 mg/kg/injection, schedule: Q01DX011 (ip), vehicle: other); 84 % of control (dose: 25.0 mg/kg/injection, schedule: Q01DX011 (ip), vehicle: water). Where the note is “dose: 50.0 mg/kg/injection, schedule: Q01DX011 (ip), vehicle: water”, the T/C is 48 % of control.
For `CCOC(=O)Sc1ncnc2nc[nH]c12`, the T/C (dose: 0.21 mg/kg/injection, schedule: Q01DX011 (ip), vehicle: carboxymethylcellulose (CMC)) is 87 % of control; the T/C (dose: 0.42 mg/kg/injection, schedule: Q01DX011 (ip), vehicle: carboxymethylcellulose (CMC)) was 41 % of control; the T/C (dose: 0.85 mg/kg/injection, schedule: Q01DX011 (ip), vehicle: carboxymethylcellulose (CMC)) is 50 % of control; the T/C (dose: 1.75 mg/kg/injection, schedule: Q01DX011 (ip), vehicle: carboxymethylcellulose (CMC)) was 3 % of control and 7 % of control and 12 % of control; the T/C (dose: 3.5 mg/kg/injection, schedule: Q01DX011 (ip), vehicle: carboxymethylcellulose (CMC)) was 4 % of control; the T/C (dose: 7.0 mg/kg/injection, schedule: Q01DX011 (ip), vehicle: carboxymethylcellulose (CMC)) is 1 % of control and 5 % of control. The T/C is 2 % of control and 8 % of control (dose: 14.0 mg/kg/injection, schedule: Q01DX011 (ip), vehicle: carboxymethylcellulose (CMC)); 8 % of control (dose: 28.0 mg/kg/injection, schedule: Q01DX011 (ip), vehicle: carboxymethylcellulose (CMC)); 8 % of control (dose: 56.0 mg/kg/injection, schedule: Q01DX011 (ip), vehicle: carboxymethylcellulose (CMC)); 7 % of control (dose: 112.0 mg/kg/injection, schedule: Q01DX011 (ip), vehicle: carboxymethylcellulose (CMC)).
For the molecule `C=C(C)[C@H]1Cc2c(ccc3c2O[C@@H]2COc4cc(OC)c(OC)cc4[C@@H]2C3=O)O1`, the T/C is, setting by setting: (dose: 0.5 mg/kg/injection, schedule: Q01DX011 (ip), vehicle: water) 93 % of control; (dose: 0.75 mg/kg/injection, schedule: Q01DX011 (ip), vehicle: water) 96 % of control; (dose: 1.0 mg/kg/injection, schedule: Q01DX011 (ip), vehicle: water) 74 % of control; (dose: 2.0 mg/kg/injection, schedule: Q01DX011 (ip), vehicle: water) 88 % of control.
`CC(=O)Nc1c(Cl)c(Cl)c2c(c1Cl)Cc1cc(F)ccc1-2`: the T/C is, setting by setting: (dose: 125.0 mg/kg/injection, schedule: Q01DX011 (ip), vehicle: carboxymethylcellulose (CMC)) 91 % of control; (dose: 125.0 mg/kg/injection, schedule: Q01DX011 (ip), vehicle: saline) 29 % of control; (dose: 250.0 mg/kg/injection, schedule: Q01DX011 (ip), vehicle: carboxymethylcellulose (CMC)) 41 % of control; (dose: 250.0 mg/kg/injection, schedule: Q01DX011 (ip), vehicle: saline) 29 % of control; (dose: 500.0 mg/kg/injection, schedule: Q01DX011 (ip), vehicle: carboxymethylcellulose (CMC)) 42 % of control; (dose: 500.0 mg/kg/injection, schedule: Q01DX011 (ip), vehicle: saline) 17 % of control. Moreover, the T/C (dose: 1000.0 mg/kg/injection, schedule: Q01DX011 (ip), vehicle: carboxymethylcellulose (CMC)) was 25 % of control and the T/C (dose: 1000.0 mg/kg/injection, schedule: Q01DX011 (ip), vehicle: saline) is 14 % of control.
Take `O=C(O)C(O)C(O)C(O)C(O)CO.O=C(O)C(O)C(O)C(O)C(O)CO.O=C(O)C(O)C(O)C(O)C(O)CO.[Ga]` (stereo not drawn): the T/C reads like this: (dose: 10.0 mg/kg/injection, schedule: Q01DX011 (ip), vehicle: carboxymethylcellulose (CMC)) 72 % of control; (dose: 20.0 mg/kg/injection, schedule: Q01DX011 (ip), vehicle: carboxymethylcellulose (CMC)) 64 % of control; (dose: 40.0 mg/kg/injection, schedule: Q01DX011 (ip), vehicle: carboxymethylcellulose (CMC)) 25 % of control; (dose: 80.0 mg/kg/injection, schedule: Q01DX011 (ip), vehicle: carboxymethylcellulose (CMC)) 10 % of control.
Turning to `O=C1N(Cl)C(=O)C(c2ccc(Cl)cc2)(c2ccc(Cl)cc2)N1Cl`, the T/C is 161 % of control (dose: 7.5 mg/kg/injection, schedule: Q#A X022 (ip), vehicle: saline); 100 % of control (dose: 15.0 mg/kg/injection, schedule: Q01DX011 (ip), vehicle: saline); 107 % of control (dose: 15.0 mg/kg/injection, schedule: Q#A X022 (ip), vehicle: saline); 52 % of control (dose: 30.0 mg/kg/injection, schedule: Q01DX011 (ip), vehicle: saline); 67 % of control (dose: 30.0 mg/kg/injection, schedule: Q#A X022 (ip), vehicle: saline); 73 % of control (dose: 45.0 mg/kg/injection, schedule: Q03DX004 (ip), vehicle: saline). Further, the T/C is, setting by setting: (dose: 60.0 mg/kg/injection, schedule: Q01DX011 (ip), vehicle: saline) 62 % of control; (dose: 60.0 mg/kg/injection, schedule: Q#A X022 (ip), vehicle: saline) 28 % of control; (dose: 90.0 mg/kg/injection, schedule: Q03DX004 (ip), vehicle: saline) 78 % of control; (dose: 120.0 mg/kg/injection, schedule: Q01DX011 (ip), vehicle: saline) 23 % of control and 28 % of control; (dose: 180.0 mg/kg/injection, schedule: Q03DX004 (ip), vehicle: saline) 61 % of control; (dose: 240.0 mg/kg/injection, schedule: Q01DX011 (ip), vehicle: saline) 15 % of control. For the same molecule, the T/C runs as follows: (dose: 360.0 mg/kg/injection, schedule: Q03DX004 (ip), vehicle: saline) 36 % of control; (dose: 480.0 mg/kg/injection, schedule: Q01DX011 (ip), vehicle: saline) 16 % of control.
As to `Nc1nc(=S)c2ncn(C3CCCCC3)c2[nH]1`, the T/C by setting is: (dose: 12.5 mg/kg/injection, schedule: Q01DX011 (ip), vehicle: methylcellulose (MC)) 81 % of control; under setting [1], 86 % of control; (dose: 50.0 mg/kg/injection, schedule: Q01DX011 (ip), vehicle: methylcellulose (MC)) 50 % of control.
`C=C(Br)CN(C)CCO`: the T/C is, setting by setting: (dose: 50.0 mg/kg/injection, schedule: Q01DX011 (ip), vehicle: other) 85 % of control; (dose: 100.0 mg/kg/injection, schedule: Q01DX011 (ip), vehicle: other) 76 % of control; (dose: 200.0 mg/kg/injection, schedule: Q01DX011 (ip), vehicle: other) 53 % of control.
